According to US20200131177A1, “PESTICIDALLY ACTIVE HETEROCYCLIC DERIVATIVES WITH SULFUR CONTAINING SUBSTITUENTS” (SYNGENTA PARTICIPATIONS AG, priority 2017, published 2020):

Tests used:
Assay type in all cases: in vivo
[1] = tested on: Myzus persicae (Green Peach Aphid); assay: Example B6: Myzus persicae, roots of pea seedlings in test solution; conditions: 144 h, test rate of 24 ppm, aphid population of mixed ages, 6 days after placing seedlings into test solutions
Experimental: Example B6: Myzus persicae (Green Peach Aphid)
Roots of pea seedlings infested with an aphid population of mixed ages were placed directly into aqueous test solutions prepared from 10′000 DMSO stock solutions. The samples were assessed for mortality 6 days after placing seedlings into test solutions.

[2] = tested on: Bemisia tabaci (Cotton White Fly); assay: Example B8: Bemisia tabaci, sprayed cotton leaf discs; conditions: foliar, 144 h, application rate of 200 ppm, adult white flies, 6 days after incubation
Experimental: Example B8: Bemisia tabaci (Cotton White Fly)
Cotton leaf discs were placed on agar in 24-well microtiter plates and sprayed with aqueous test solutions prepared from 10′000 ppm DMSO stock solutions. After drying the leaf discs were infested with adult white flies. The samples were checked for mortality 6 days after incubation.

[3] = tested on: Spodoptera littoralis (Egyptian Cotton Leaf Worm); assay: Example B1: Spodoptera littoralis, sprayed cotton leaf discs; conditions: foliar, 72 h, application rate of 200 ppm, L1 larvae, 3 days after infestation, read-out: control (mortality, anti-feeding effect or growth inhibition)
Experimental: Example B1: Spodoptera littoralis (Egyptian Cotton Leaf Worm)
Cotton leaf discs were placed onto agar in 24-well microtiter plates and sprayed with aqueous test solutions prepared from 10′000 ppm DMSO stock solutions. After drying the leaf discs were infested with five L1 larvae. The samples were assessed for mortality, anti-feeding effect, and growth inhibition in comparison to untreated samples 3 days after infestation. Control of Spodoptera littoralis by a test sample is given when at least one of the categories mortality, anti-feedant effect, and growth inhibition is higher than the untreated sample.

[4] = tested on: Euschistus heros (Neotropical Brown Stink Bug); assay: Example B9: Euschistus heros, sprayed soybean leaves; conditions: 120 h, application rate of 200 ppm, N2 nymphs, 5 days after infestation, read-out: effect in at least one of the two categories (mortality or growth inhibition)
Experimental: Example B9: Euschistus heros (Neotropical Brown Stink Bug)
Soybean leaves on agar in 24-well microtiter plates were sprayed with aqueous test solutions prepared from 10′000 ppm DMSO stock solutions. After drying the leaves were infested with N2 nymphs. The samples were assessed for mortality and growth inhibition in comparison to untreated samples 5 days after infestation.

[5] = tested on: Plutella xylostella (Diamond Back Moth); assay: Example B3: Plutella xylostella, treated artificial diet; conditions: 120 h, application rate of 200 ppm, L2 larvae, 5 days after infestation, read-out: effect in at least one of the two categories (mortality or growth inhibition)
Experimental: Example B3: Plutella xylostella (Diamond Back Moth)
(§1) 24-well microtiter plates with artificial diet were treated with aqueous test solutions prepared from 10′000 ppm DMSO stock solutions by pipetting. After drying, the plates were infested with L2 larvae (10 to 15 per well). The samples were assessed for mortality and growth inhibition in comparison to untreated samples 5 days after infestation.

[6] = tested on: Myzus persicae (Green Peach Aphid); assay: Example B5: Myzus persicae, sprayed sunflower leaf discs; conditions: foliar, 144 h, application rate of 200 ppm, aphid population of mixed ages, 6 days after infestation
Experimental: Example B5: Myzus persicae (Green Peach Aphid)
Sunflower leaf discs were placed onto agar in a 24-well microtiter plate and sprayed with aqueous test solutions prepared from 10′000 ppm DMSO stock solutions. After drying, the leaf discs were infested with an aphid population of mixed ages. The samples were assessed for mortality 6 days after infestation.

[7] = tested on: Diabrotica balteata (Corn Root Worm); assay: Example B4: Diabrotica balteata, sprayed maize sprouts; conditions: 96 h, application rate of 200 ppm, L2 larvae, 4 days after infestation, read-out: effect in at least one of the two categories (mortality or growth inhibition)
Experimental: Example B4: Diabrotica balteata (Corn Root Worm)
as §1, with “Maize sprouts placed onto an agar layer in 24-well” for “24-well”, “plates” for “plates with artificial diet”, “spraying.” for “pipetting.”, “(6” for “(10”, “10” for “15”, “4” for “5”

[8] = tested on: Frankliniella occidentalis (Western Flower Thrips); assay: Example B12: Frankliniella occidentalis, sprayed sunflower leaf discs; conditions: foliar, 168 h, application rate of 200 ppm, population of mixed ages, 7 days after infestation
Experimental: Example B12: Frankliniella occidentalis (Western Flower Thrips)
Sunflower leaf discs were placed on agar in 24-well microtiter plates and sprayed with aqueous test solutions prepared from […] stock solutions. After drying the leaf discs were infested with a Frankliniella population of mixed ages. The samples were assessed for mortality 7 days after infestation.

[9] = tested on: Tetranychus urticae (Two-Spotted Spider Mite); assay: Example B10: Tetranychus urticae, sprayed bean leaf discs; conditions: foliar, 192 h
Experimental: Example B10: Tetranychus urticae (Two-Spotted Spider Mite)
Bean leaf discs on agar in 24-well microtiter plates were sprayed with aqueous test solutions prepared from 10′000 ppm DMSO stock solutions. After drying the leaf discs were infested with a mite population of mixed ages. The samples were assessed for mortality on mixed population (mobile stages) 8 days after infestation.

CCS(=O)(=O)c1cc(C(F)(F)F)cnc1-c1nc2cc(S(=O)(=O)C(F)F)ncc2n1C [Compound P1, 6-(difluoromethylsulfonyl)-2-[3-ethylsulfonyl-5-(trifluoromethyl)-2-pyridyl]-3-methyl-imidazo[4,5-c]pyridine]
≥ 80%: mortality at 24 ppm [1] | mortality at 200 ppm [2] | percent control (mortality, anti-feedant effect or growth inhibition) at 200 ppm [3] | percent effect (mortality or growth inhibition) at 200 ppm [4] | percent effect (mortality or growth inhibition) at 200 ppm [5] | mortality at 200 ppm [6] | percent effect (mortality or growth inhibition) at 200 ppm [7]

CCS(=O)(=O)c1cc(C(F)(F)F)cnc1-c1nc2cc([S+]([O-])C(F)F)ncc2n1C (stereo not drawn) [Compound P2, 6-(difluoromethylsulfinyl)-2-[3-ethylsulfonyl-5-(trifluoromethyl)-2-pyridyl]-3-methyl-imidazo[4,5-c]pyridine]
≥ 80%: mortality at 24 ppm [1] | mortality at 200 ppm [2] | percent control (mortality, anti-feedant effect or growth inhibition) at 200 ppm [3] | percent effect (mortality or growth inhibition) at 200 ppm [4] | percent effect (mortality or growth inhibition) at 200 ppm [5] | mortality at 200 ppm [6] | percent effect (mortality or growth inhibition) at 200 ppm [7]

CCS(=O)(=O)c1cc(C(F)(F)F)cnc1-c1nc2cc(SC(F)F)ncc2n1C [Compound P3, 6-(difluoromethylsulfanyl)-2-[3-ethylsulfonyl-5-(trifluoromethyl)-2-pyridyl]-3-methyl-imidazo[4,5-c]pyridine]
≥ 80%: mortality at 24 ppm [1] | mortality at 200 ppm [2] | mortality at 200 ppm [8] | percent control (mortality, anti-feedant effect or growth inhibition) at 200 ppm [3] | percent effect (mortality or growth inhibition) at 200 ppm [4] | percent effect (mortality or growth inhibition) at 200 ppm [5] | mortality at 200 ppm [6] | percent effect (mortality or growth inhibition) at 200 ppm [7]

CCS(=O)(=O)c1cccnc1-c1nc2cc([S+]([O-])C(F)F)ncc2n1C (stereo not drawn) [Compound P4]
≥ 80%: mortality at 24 ppm [1] | percent effect (mortality or growth inhibition) at 200 ppm [4] | mortality at 200 ppm [6] | percent effect (mortality or growth inhibition) at 200 ppm [7]

CCS(=O)(=O)c1cccnc1-c1nc2cc(SC(F)F)ncc2n1C [Compound P6, 6-(difluoromethylsulfanyl)-2-(3-ethylsulfonyl-2-pyridyl)-3-methyl-imidazo[4,5-c]pyridine]
≥ 80%: mortality at 24 ppm [1] | percent effect (mortality or growth inhibition) at 200 ppm [4] | mortality at 200 ppm [6] | percent effect (mortality or growth inhibition) at 200 ppm [7]

CCS(=O)(=O)c1ccc(-n2cncn2)nc1-c1nc2cc(S(=O)(=O)C(F)F)ncc2n1C [Compound P7, 6-(difluoromethylsulfonyl)-2-[3-ethylsulfonyl-6-(1,2,4-triazol-1-yl)-2-pyridyl]-3-methyl-imidazo[4,5-c]pyridine]
≥ 80%: mortality at 24 ppm [1] | percent effect (mortality or growth inhibition) at 200 ppm [4] | mortality at 200 ppm [6] | percent effect (mortality or growth inhibition) at 200 ppm [7]

CCS(=O)(=O)c1ccc(-n2cncn2)nc1-c1nc2cc([S+]([O-])C(F)F)ncc2n1C (stereo not drawn) [Compound P8, 6-(difluoromethylsulfinyl)-2-[3-ethylsulfonyl-6-(1,2,4-triazol-1-yl)-2-pyridyl]-3-methyl-imidazo[4,5-c]pyridine]
≥ 80%: mortality at 24 ppm [1] | mortality at 200 ppm [2] | percent effect (mortality or growth inhibition) at 200 ppm [4] | mortality at 200 ppm [6] | percent effect (mortality or growth inhibition) at 200 ppm [7]

CCS(=O)(=O)c1ccc(-n2cncn2)nc1-c1nc2cc(SC(F)F)ncc2n1C [Compound P9, 6-(difluoromethylsulfanyl)-2-[3-ethylsulfonyl-6-(1,2,4-triazol-1-yl)-2-pyridyl]-3-methyl-imidazo[4,5-c]pyridine]
≥ 80%: mortality at 24 ppm [1] | mortality at 200 ppm [2] | percent control (mortality, anti-feedant effect or growth inhibition) at 200 ppm [3] | percent effect (mortality or growth inhibition) at 200 ppm [4] | mortality at 200 ppm [6] | percent effect (mortality or growth inhibition) at 200 ppm [7]

CCS(=O)(=O)c1cc(OC(C)C)cnc1-c1nc2cc(S(=O)(=O)C(F)F)ncc2n1C [Compound P10, 6-(difluoromethylsulfonyl)-2-(3-ethylsulfonyl-5-isopropoxy-2-pyridyl)-3-methyl-imidazo[4,5-c]pyridine]
≥ 80%: mortality at 24 ppm [1] | mortality at 200 ppm [9] | percent control (mortality, anti-feedant effect or growth inhibition) at 200 ppm [3] | percent effect (mortality or growth inhibition) at 200 ppm [4] | percent effect (mortality or growth inhibition) at 200 ppm [5] | mortality at 200 ppm [6]

CCS(=O)(=O)c1cc(OC(C)C)cnc1-c1nc2cc([S+]([O-])C(F)F)ncc2n1C (stereo not drawn) [Compound P11, 6-(difluoromethylsulfinyl)-2-(3-ethylsulfonyl-5-isopropoxy-2-pyridyl)-3-methyl-imidazo[4,5-c]pyridine]
≥ 80%: mortality at 24 ppm [1] | mortality at 200 ppm [9] | percent control (mortality, anti-feedant effect or growth inhibition) at 200 ppm [3] | percent effect (mortality or growth inhibition) at 200 ppm [4] | percent effect (mortality or growth inhibition) at 200 ppm [5] | mortality at 200 ppm [6]

CCS(=O)(=O)c1cc(OC(C)C)cnc1-c1nc2cc(SC(F)F)ncc2n1C [Compound P12, 6-(difluoromethylsulfanyl)-2-(3-ethylsulfonyl-5-isopropoxy-2-pyridyl)-3-methyl-imidazo[4,5-c]pyridine]
≥ 80%: mortality at 24 ppm [1] | percent control (mortality, anti-feedant effect or growth inhibition) at 200 ppm [3] | percent effect (mortality or growth inhibition) at 200 ppm [4] | percent effect (mortality or growth inhibition) at 200 ppm [5] | mortality at 200 ppm [6] | percent effect (mortality or growth inhibition) at 200 ppm [7]
